{
  "source": "paper PMC10746543",
  "about": "“Design principles for cyclin K molecular glue degraders” (Nature Chemical Biology, 2023)",
  "key": {"CDK12–cyclin K": {"target": "CDK12–cyclin K (Homo sapiens, UniProt Q9NYV4)", "sequence (Q9NYV4 713-1052)": "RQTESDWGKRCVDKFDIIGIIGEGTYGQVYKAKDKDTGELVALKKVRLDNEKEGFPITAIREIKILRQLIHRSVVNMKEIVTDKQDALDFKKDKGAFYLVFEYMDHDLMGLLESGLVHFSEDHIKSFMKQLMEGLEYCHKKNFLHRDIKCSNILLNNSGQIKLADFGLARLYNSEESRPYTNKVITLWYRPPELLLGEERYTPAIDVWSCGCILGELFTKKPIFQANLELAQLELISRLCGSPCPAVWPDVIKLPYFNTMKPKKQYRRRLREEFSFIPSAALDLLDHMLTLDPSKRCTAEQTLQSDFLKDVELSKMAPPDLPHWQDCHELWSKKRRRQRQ", "sequence (O75909 1-267 partner limits assumed)": "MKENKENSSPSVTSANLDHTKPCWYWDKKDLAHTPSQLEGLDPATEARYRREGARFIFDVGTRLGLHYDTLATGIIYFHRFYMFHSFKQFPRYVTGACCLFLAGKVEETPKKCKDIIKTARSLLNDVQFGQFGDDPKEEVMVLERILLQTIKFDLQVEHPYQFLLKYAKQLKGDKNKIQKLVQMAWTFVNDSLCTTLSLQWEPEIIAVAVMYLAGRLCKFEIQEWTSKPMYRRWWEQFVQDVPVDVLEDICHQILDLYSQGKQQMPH", "assay": "Lanthascreen kinase binding assay, CDK12", "conditions": "for Lanthascreen raw signal, sheet CDK12: series r37, duplicates", "protocol": "(§1) Lanthascreen experiments were performed using commercially available reagents (Thermo Fisher) and according to the manufacturer’s instructions."}, "HEK293T cells": {"tested_on": "HEK293T cells", "assay": "Drug sensitivity assay (CellTiter-Glo viability) with or without MLN4924 pretreatment", "assay_type": "cell-based, human", "conditions": "Supplementary Table 2", "summary_of_the_method": "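Cas9-expressing HEK293T cells receive either vehicle or 100 nM MLN4924, then compounds 2 h afterwards. After three days, luminescence-based viability is measured and calculated relative to DMSO.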"}, "CDK2–cyclin A": {"target": "T1, CDK2–cyclin A (Homo sapiens, UniProt P24941)", "T1 construct": "purchased Thermo Fisher", "assay": "Lanthascreen kinase binding assay, CDK2", "conditions": "for Lanthascreen signal, sheet CDK2: raw replicates, experiment r36-r46", "protocol": "as §1"}, "CDK9–cyclin T": {"target": "T2, CDK9–cyclin T (Homo sapiens, UniProt P50750)", "T2 construct": "purchased Thermo Fisher", "assay": "Lanthascreen kinase binding assay, CDK9", "conditions": "for Lanthascreen TR-FRET signal (raw ratio), sheet CDK9: third titration set (r25), duplicates", "protocol": "as §1"}, "[1]": {"tested_on": "cyclin K–eGFP degradation reporter", "assay": "Cyclin K reporter stability analysis (dual-color cyclin K–eGFP reporter)", "assay_type": "cell-based, human", "conditions": "source data sheet correlations; read-out: DC50", "summary_of_the_method": "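Readout was the eGFP-to-mCherry geometric-mean ratio by flow cytometry, normalized to three DMSO controls, after 5 h drug exposure. Cells used were HEK293T–Cas9 expressing the dual-colour cyclin K–eGFP degradation reporter.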"}, "CDK12–cyclin K and DDB1": {"target": "T3, CDK12–cyclin K and DDB1 (Homo sapiens, UniProt Q16531+Q9NYV4, K965R)", "T3 construct": "His6–CDK12 (a.a. 713–1,052); full-length or beta-propeller B domain deletion (ΔBPB: a.a. 396–705 deleted) constructs of His6–DDB1ΔBPB, StrepII–Avi–DDB1, or His6–Spy–DDB1; made in house; host or cells: Trichoplusia ni High Five insect cells (baculovirus)", "T3 sequence (Q9NYV4 713-1052 K965R)": "as the sequence (Q9NYV4 713-1052) above, with K253R counted along it", "T3 sequence (O75909 1-267 partner)": "as the sequence (O75909 1-267 partner limits assumed) above", "T3 sequence (Q16531 whole entry)": "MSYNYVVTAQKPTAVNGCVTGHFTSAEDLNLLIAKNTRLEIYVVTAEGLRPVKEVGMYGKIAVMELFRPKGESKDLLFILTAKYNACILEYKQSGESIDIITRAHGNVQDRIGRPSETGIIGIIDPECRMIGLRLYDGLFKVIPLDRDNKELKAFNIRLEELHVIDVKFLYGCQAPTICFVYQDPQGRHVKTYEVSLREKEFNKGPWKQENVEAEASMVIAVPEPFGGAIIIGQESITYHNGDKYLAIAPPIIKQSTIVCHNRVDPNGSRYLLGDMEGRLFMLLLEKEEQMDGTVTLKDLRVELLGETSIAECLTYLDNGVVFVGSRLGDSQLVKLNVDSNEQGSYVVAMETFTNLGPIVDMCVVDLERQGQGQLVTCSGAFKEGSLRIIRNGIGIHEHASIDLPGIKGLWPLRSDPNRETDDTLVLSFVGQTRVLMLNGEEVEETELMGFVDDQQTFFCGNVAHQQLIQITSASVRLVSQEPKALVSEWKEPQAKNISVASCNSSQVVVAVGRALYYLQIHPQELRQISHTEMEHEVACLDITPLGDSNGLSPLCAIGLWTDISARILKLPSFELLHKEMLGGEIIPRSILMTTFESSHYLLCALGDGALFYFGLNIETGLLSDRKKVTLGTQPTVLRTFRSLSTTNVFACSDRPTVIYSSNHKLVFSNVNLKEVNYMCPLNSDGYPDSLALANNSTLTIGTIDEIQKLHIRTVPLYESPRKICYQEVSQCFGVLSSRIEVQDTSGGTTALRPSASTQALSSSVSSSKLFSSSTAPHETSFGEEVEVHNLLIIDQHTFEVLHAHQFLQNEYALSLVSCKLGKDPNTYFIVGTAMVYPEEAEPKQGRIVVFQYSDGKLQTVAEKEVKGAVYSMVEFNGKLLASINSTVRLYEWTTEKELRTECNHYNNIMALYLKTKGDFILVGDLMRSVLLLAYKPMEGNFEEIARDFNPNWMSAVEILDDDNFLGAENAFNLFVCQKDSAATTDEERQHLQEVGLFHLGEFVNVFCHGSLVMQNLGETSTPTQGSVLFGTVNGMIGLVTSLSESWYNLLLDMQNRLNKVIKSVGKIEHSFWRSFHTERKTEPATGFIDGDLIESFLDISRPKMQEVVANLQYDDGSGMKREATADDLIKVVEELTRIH", "assay": "TR-FRET ternary complex formation assay (compound titration)", "assay_type": "binding", "summary_of_the_method": "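A time delay of 70 μs preceded acquisition, limiting background fluorescence; the ratio of emission at 520 versus 490 nm gave the TR-FRET value.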"}},
  "note": "Where “and” joins values, the source holds several entries; their conditions need not be identical. Equal entries are not always repeated. Where two headings read alike, the source gives them in different places.",
  "data": [
    {"smiles": "CC[C@H](CO)Nc1nc(NCc2nc3cc(Cl)c(Cl)cc3[nH]2)c2ncn(-c3cnn(C)c3)c2n1", "note": "[DS22]", "values": [
      {"measurement": "IC50", "setting": "CDK12–cyclin K; Supplementary Table 2, read-out: Lanthascreen IC50 [nM] CDK12", "value": 1320, "unit": "nM"},
      {"measurement": "Lanthascreen raw signal, sheet CDK12", "setting": "CDK12–cyclin K; compound 0.038147 nM", "value": "0.01422 and 0.01468"},
      {"measurement": "Lanthascreen raw signal, sheet CDK12", "setting": "CDK12–cyclin K; compound 0.152588 nM", "value": "0.01335 and 0.01357"},
      {"measurement": "Lanthascreen raw signal, sheet CDK12", "setting": "CDK12–cyclin K; compound 0.610352 nM", "value": "0.01416 and 0.01634"},
      {"measurement": "Lanthascreen raw signal, sheet CDK12", "setting": "CDK12–cyclin K; compound 9.76563 nM", "value": "0.01407 and 0.01436"},
      {"measurement": "Lanthascreen raw signal, sheet CDK12", "setting": "CDK12–cyclin K; compound 39.0625 nM", "value": "0.01347 and 0.01362"},
      {"measurement": "Lanthascreen raw signal, sheet CDK12", "setting": "CDK12–cyclin K; compound 156.25 nM", "value": "0.01258 and 0.01228"},
      {"measurement": "Lanthascreen raw signal, sheet CDK12", "setting": "CDK12–cyclin K; compound 625 nM", "value": "0.01036 and 0.01104"},
      {"measurement": "Lanthascreen raw signal, sheet CDK12", "setting": "CDK12–cyclin K; compound 2500 nM", "value": "0.007943 and 0.008192"},
      {"measurement": "Lanthascreen raw signal, sheet CDK12", "setting": "CDK12–cyclin K; compound 10000 nM", "value": "0.006259 and 0.005981"},
      {"measurement": "EC50", "setting": "HEK293T cells; Homo sapiens, HEK-293T, HEK293T viability, 72 h, compound alone, read-out: Cellular assays EC50", "value": 935, "unit": "nM"},
      {"measurement": "Toxicity rescue", "setting": "HEK293T cells; MLN4924-mediated cytotoxicity rescue, 10 µM used where n.d.", "value": 66, "unit": "%"},
      {"measurement": "Lanthascreen signal, sheet CDK2", "setting": "CDK2–cyclin A; Compound 0.038147 nM", "value": "0.01361 and 0.01332"},
      {"measurement": "Lanthascreen signal, sheet CDK2", "setting": "CDK2–cyclin A; Compound 0.152588 nM", "value": "0.01367 and 0.01361"},
      {"measurement": "Lanthascreen signal, sheet CDK2", "setting": "CDK2–cyclin A; Compound 0.610352 nM", "value": "0.01456 and 0.01463"},
      {"measurement": "Lanthascreen signal, sheet CDK2", "setting": "CDK2–cyclin A; Compound 9.76563 nM", "value": "0.01461 and 0.01423"},
      {"measurement": "Lanthascreen signal, sheet CDK2", "setting": "CDK2–cyclin A; Compound 39.0625 nM", "value": "0.01375 and 0.01404"},
      {"measurement": "Lanthascreen signal, sheet CDK2", "setting": "CDK2–cyclin A; Compound 156.25 nM", "value": "0.01392 and 0.01367"},
      {"measurement": "Lanthascreen signal, sheet CDK2", "setting": "CDK2–cyclin A; Compound 625 nM", "value": "0.01433 and 0.01409"},
      {"measurement": "Lanthascreen signal, sheet CDK2", "setting": "CDK2–cyclin A; Compound 2500 nM", "value": "0.01378 and 0.01394"},
      {"measurement": "Lanthascreen signal, sheet CDK2", "setting": "CDK2–cyclin A; Compound 10000 nM", "value": "0.01296 and 0.01217"},
      {"measurement": "IC50", "setting": "CDK2–cyclin A; Lanthascreen, average, Extended Data Fig. 8, read-out: CDK2 IC50", "value": "> 10000", "unit": "nM"},
      {"measurement": "IC50", "setting": "CDK2–cyclin A; Supplementary Table 2, read-out: Lanthascreen IC50 [nM] CDK2", "value": "> 10000", "unit": "nM"},
      {"measurement": "IC50", "setting": "CDK9–cyclin T; Lanthascreen, average, Extended Data Fig. 8, read-out: CDK9 IC50", "value": "> 10000", "unit": "nM"},
      {"measurement": "IC50", "setting": "CDK9–cyclin T; Supplementary Table 2, read-out: Lanthascreen IC50 [nM] CDK9", "value": "> 10000", "unit": "nM"},
      {"measurement": "Lanthascreen TR-FRET signal (raw ratio), sheet CDK9", "setting": "CDK9–cyclin T; compound 0.038147 nM", "value": "0.01967 and 0.01921"},
      {"measurement": "Lanthascreen TR-FRET signal (raw ratio), sheet CDK9", "setting": "CDK9–cyclin T; compound 0.152588 nM", "value": "0.02095 and 0.01844"},
      {"measurement": "Lanthascreen TR-FRET signal (raw ratio), sheet CDK9", "setting": "CDK9–cyclin T; compound 0.610352 nM", "value": "0.02014 and 0.01923"},
      {"measurement": "Lanthascreen TR-FRET signal (raw ratio), sheet CDK9", "setting": "CDK9–cyclin T; compound 9.76563 nM", "value": "0.02017 and 0.01981"},
      {"measurement": "Lanthascreen TR-FRET signal (raw ratio), sheet CDK9", "setting": "CDK9–cyclin T; compound 39.0625 nM", "value": "0.02067 and 0.01823"},
      {"measurement": "Lanthascreen TR-FRET signal (raw ratio), sheet CDK9", "setting": "CDK9–cyclin T; compound 156.25 nM", "value": "0.02063 and 0.01896"},
      {"measurement": "Lanthascreen TR-FRET signal (raw ratio), sheet CDK9", "setting": "CDK9–cyclin T; compound 625 nM", "value": "0.01918 and 0.01876"},
      {"measurement": "Lanthascreen TR-FRET signal (raw ratio), sheet CDK9", "setting": "CDK9–cyclin T; compound 2500 nM", "value": "0.01797 and 0.01674"},
      {"measurement": "Lanthascreen TR-FRET signal (raw ratio), sheet CDK9", "setting": "CDK9–cyclin T; compound 10000 nM", "value": "0.01641 and 0.01561"},
      {"measurement": "DC50", "setting": "[1]", "value": 109, "unit": "nM"},
      {"measurement": "TR-FRET signal at compound concentration 0.468 nM", "setting": "CDK12–cyclin K and DDB1; compound concentration 0.468 nM, raw replicate titration data", "value": "0.2612 and 0.2579 and 0.218 and 0.2096"},
      {"measurement": "TR-FRET signal at compound concentration 2.16 nM", "setting": "CDK12–cyclin K and DDB1; compound concentration 2.16 nM, raw replicate titration data", "value": "0.3357 and 0.3419 and 0.2765 and 0.3174"},
      {"measurement": "TR-FRET signal at compound concentration 3.6 nM", "setting": "CDK12–cyclin K and DDB1; compound concentration 3.6 nM, raw replicate titration data", "value": "0.4892 and 0.5148 and 0.5183 and 0.5347"},
      {"measurement": "TR-FRET signal at compound concentration 7.92001 nM", "setting": "CDK12–cyclin K and DDB1; compound concentration 7.92001 nM, raw replicate titration data", "value": "0.8316 and 0.8843 and 0.9885 and 1.068"},
      {"measurement": "TR-FRET signal at compound concentration 15.84 nM", "setting": "CDK12–cyclin K and DDB1; compound concentration 15.84 nM, raw replicate titration data", "value": "1.474 and 1.574 and 1.714 and 1.959"},
      {"measurement": "TR-FRET signal at compound concentration 30.96 nM", "setting": "CDK12–cyclin K and DDB1; compound concentration 30.96 nM, raw replicate titration data", "value": "2.47 and 2.714 and 3.094 and 3.238"},
      {"measurement": "TR-FRET signal at compound concentration 62.6401 nM", "setting": "CDK12–cyclin K and DDB1; compound concentration 62.6401 nM, raw replicate titration data", "value": "3.3967 and 3.4513 and 3.77 and 3.733"},
      {"measurement": "TR-FRET signal at compound concentration 125.28 nM", "setting": "CDK12–cyclin K and DDB1; compound concentration 125.28 nM, raw replicate titration data", "value": "3.673 and 3.6963 and 3.89 and 3.859"},
      {"measurement": "TR-FRET signal at compound concentration 244.8 nM", "setting": "CDK12–cyclin K and DDB1; compound concentration 244.8 nM, raw replicate titration data", "value": "3.796 and 3.869 and 3.911 and 3.923"},
      {"measurement": "TR-FRET signal at compound concentration 993.601 nM", "setting": "CDK12–cyclin K and DDB1; compound concentration 993.601 nM, raw replicate titration data", "value": "3.806 and 3.925 and 3.935 and 3.945"},
      {"measurement": "TR-FRET signal at compound concentration 2001.6 nM", "setting": "CDK12–cyclin K and DDB1; compound concentration 2001.6 nM, raw replicate titration data", "value": "3.846 and 3.958 and 4 and 4.014"},
      {"measurement": "EC50", "setting": "CDK12–cyclin K and DDB1; in vitro complex formation, 50 nM CDK12–cyclin K, 100 nM DDB1, text and figures, read-out: TR-FRET EC50", "value": "19 ± 1", "unit": "nM"},
      {"measurement": "EC50", "setting": "CDK12–cyclin K and DDB1; sheet MOESM7, read-out: log TR-FRET EC50 (converted)", "value": 19.3, "unit": "nM"},
      {"measurement": "EC50", "setting": "CDK12–cyclin K and DDB1; source data sheet correlations, read-out: TR-FRET EC50", "value": 19.3, "unit": "nM"}
    ]}
  ]
}
